The nature of the series: IV/PO pharmacokinetic study in dogs. It is filed as in vivo, male beagle dogs. To be noted: dog; for AUC(0-t): read-out: AUClast Mean. Further details: AUC(0-t): concentration or dose not given beside the values. The method, then:
Each rat or dog PK study began with formulation of the test compound. Appropriate masses of each test compound were added into a volume of vehicle (e.g. 5% sodium bicarbonate, 5% dextrose in H2O) such that the final concentration of each compound was appropriate to be dosed at 2 mL/kg. Although a homogenous suspension were acceptable for oral dosing, intravenous dosing solutions were sterile-filtered (0.2 μm) prior to dosing to ensure no particulates were administered.
In the dog study, male beagle dogs (3 per route) housed at Agilux Laboratories (Worcester, Mass.) and weighing between 7-12 kg received either a single oral gavage or a single intravenous (via indwelling catheter) dose of the dosing solution. The final dose was typically 0.1-2 mg/kg. Serial blood samples were harvested via direct venipuncture at 3 minutes, 15 minutes, 30 minutes, 1 hour, 2 hours, 4 hours, 6 hours, 8 hours, 12 hours, and 24 hours post-dose. All samples were collected manually into microtainer tubes containing EDTA as the anticoagulant and were processed to plasma by refrigerated centrifugation.
Plasma samples were extracted with 3 volumes of MeCN containing a suitable internal standard. Extracts were reconstituted into 3 volumes of water containing 1% formic acid, and analyzed via HPLC-coupled MS/MS. Plasma concentration-time data were analyzed using the Phoenix software (Pharsight Corp., St. Louis, Mo.) to calculate pharmacokinetic parameters.
Plasma clearance was determined from the intravenous arm of the study, and represents the rate at which plasma is cleared of drug. It is equal to the dose divided by the area under the plasma concentration-time curve. In addition to plasma clearance, it is also essential for an orally administered drug to reach efficacious systemic levels following oral delivery. Oral bioavailability is a measurement of plasma exposures following oral administration relative to exposures following intravenous administration.

Broadly, the bioavailability is dose-corrected exposure relative to a reference, in per cent.

Where two headings read alike, the source gives them in different places.

As for `Cc1cnc(C(=O)N[C@H](Cc2ccc(-c3cc(Cl)ccc3F)cc2)C[C@@H](O)C(=O)O)o1` [Compound 1, (2R,4R)-5-(5′-Chloro-2′-fluorobiphenyl-4-yl)-2-hydroxy-4-[(5-methyloxazole-2-carbonyl)amino]pentanoic Acid], the “CLlast Mean” value (IV) is 4.83 mL/min/kg. In addition, the AUC(0-t) runs as follows: (male, beagle, plasma, IV) 510 ng·h/mL; (male, beagle, plasma, PO) 530 ng·h/mL. In addition, for the setting “male, beagle, plasma, PO vs IV AUClast”, the bioavailability was greater than 100%.

These data come from US11642332B2, “(2R,4R)-5-(5′-chloro-2′-fluorobiphenyl-4-yl)-2-hydroxy-4-[(5-methyloxazole-2-carbonyl)amino]pentanoic acid” (THERAVANCE BIOPHARMA R&D IP, LLC, priority 2015, dated 2023).
